# Target: T1, human PAD4 (Homo sapiens, UniProt Q9UM07)
# T1 construct: human PAD4 (NM_012387), A2-P663, was PCR amplified; His-SUMO (N, cleaved yes); made in house; host or cells: E. coli BL21(DE3)
# Experiment: In vitro PAD4 BAEE biochemical assay
# Details: BAEE substrate 3 mM, 5 nM PAD4, 2 mM calcium chloride; geometric mean of multiple experiments
# How it was run: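 Fluorescence read-out (ex 405/em 535 nm) of isoindole formed from ammonia, o-phthalaldehyde and DTT after EDTA stop. Reaction: 5 nM PAD4, 2 mM CaCl2, 3 mM BAEE, 2 h, 25 °C, after 30 min enzyme–compound preincubation. Normalised to BB-Cl-Amidine (50 µM) and DMSO controls.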
# T1 sequence (Q9UM07 2-663): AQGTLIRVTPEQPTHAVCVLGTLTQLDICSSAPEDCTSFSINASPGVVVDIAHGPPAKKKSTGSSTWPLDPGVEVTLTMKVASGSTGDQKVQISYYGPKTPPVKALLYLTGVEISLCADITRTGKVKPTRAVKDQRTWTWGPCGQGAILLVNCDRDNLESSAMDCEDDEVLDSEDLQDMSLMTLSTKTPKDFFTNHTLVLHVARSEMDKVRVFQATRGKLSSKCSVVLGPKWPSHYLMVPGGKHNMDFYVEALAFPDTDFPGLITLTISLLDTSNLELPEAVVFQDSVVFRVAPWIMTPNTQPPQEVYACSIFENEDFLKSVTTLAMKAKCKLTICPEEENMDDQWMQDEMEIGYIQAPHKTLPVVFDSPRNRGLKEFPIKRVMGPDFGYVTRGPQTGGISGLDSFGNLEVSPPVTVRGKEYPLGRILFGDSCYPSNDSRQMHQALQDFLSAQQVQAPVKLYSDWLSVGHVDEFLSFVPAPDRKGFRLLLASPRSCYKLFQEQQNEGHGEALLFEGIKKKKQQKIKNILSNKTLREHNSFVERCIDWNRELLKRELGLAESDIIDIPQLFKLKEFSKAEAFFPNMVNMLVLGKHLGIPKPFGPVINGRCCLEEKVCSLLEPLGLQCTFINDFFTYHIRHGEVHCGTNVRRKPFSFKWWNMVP
row,Compound,IC50
1,"COC[C@H]1CCN(C(=O)c2cc(OC)c3c(c2)nc(-c2cc4ccc5nc4n2CCCCCCC(C)(C)C(=O)N[C@@H]5C)n3C)C[C@@H]1N [Example 677, (11~{R})-17-[5-[(3~ {R},4~{S})-3-amino-4-(methoxymethyl)piperidine-1-carbonyl]-7-methoxy-1-methyl-benzimidazol-2-yl]-8,8,11-trimethyl-1,10,19-triazatricyclo [10.5.2.0^{15,18}] nonadeca-12(19),13,15 (18),16-tetraen-9-one]",82 nM
2,"COc1cc(C(=O)N2C[C@H]3CC[C@@H]2[C@@H]3N)cc2nc(-c3cc4ccc5nc4n3CCCCCC[C@@](C)(C(F)(F)F)C(=O)N[C@@H]5C)n(C)c12 [Example 722, (8~{R},11~{R})-17-[5-[(1~{R},4~{R},7~{R})-7-amino-2-azabicyclo [2.2.1]heptane-2-carbonyl]-7-methoxy-1-methyl-benzimidazol-2-yl]-8,11-dimethyl-8-(trifluoromethyl)-1,10,19-triazatricyclo [10.5.2.0^{15,18}]nonadeca-12(19),13,15(18),16-tetraen-9-one]",174 nM
3,"COc1cc(C(=O)N2CC[C@@H](OC)[C@@H](N)C2)cc2nc(-c3cc4ccc5nc4n3CC(F)(F)CCC[C@@H]3C[C@H]3C(=O)N(CC(F)F)[C@@H]5C)n(C)c12 [Example 867, (2~{R},5~{R},7~{R})-14-[5-[(3~{S},4~{R})-3-amino-4-methoxy-piperidine-1-carbonyl]-7-methoxy-1-methyl-benzimidazol-2-yl]-3-(2,2-difluoroethyl)-11,11-difluoro-2-methyl-3,13,19-triazatetracyclo[11.5.2.0^ {5,7).0^{16,20}]icosa-1(19),14,16(20),17-tetraen-4-one]",44 nM
4,"COc1cc(C(=O)N2CCC[C@@H](N)C2)cc2nc(-c3cc4ccc5nc4n3C[C@H]3C[C@H]3COC[C@@H](C)C(=O)N[C@@H]5C)n(C)c12 (single isomer, unassigned) [Example 312, (3˜{S},5˜{R},9˜{R},12˜{R})-18-[5-[(3˜{R})-3-aminopiperidine-1-carbonyl]-7-methoxy-1-methyl-benzimidazol-2-yl]-9,12-dimethyl-7-oxa-1,11,20-triazatetracyclo[11.5.2.0^{3,5}.0^{16,19}]icosa-13(20),14,16(19),17-tetraen-10-one]",56 nM
5,"C[C@H]1NC(=O)C(C)(C)CCCCCCn2c(-c3nc4cc(C(=O)N[C@H]5CNCC[C@@H]5F)c(F)cc4n3C)cc3ccc1nc32 [Example 591, 6-fluoro-~{N}-[(3~{S},4~ {S})-4-fluoro-3-piperidyl]-1-methyl-2-[(11~ {R})-8,8,11-trimethyl-9-oxo-1,10,19-triazatricyclo [10.5.2.0^{15,18}]nonadeca-12,14,16,18-tetraen-17-yl]benzimidazole-5-carboxamide]",81 nM
6,"COc1cc(C(=O)N2[C@H]3CC[C@@H]2[C@H](N)C3)cc2nc(-c3cc4ccc5nc4n3C[C@@H]3C[C@H]3COCC(=O)N[C@@H]5C)c(C)n12 [Example 326, (3~{R},5~{R},11~{R})-17-[7-[(1~{R},2~{R},4~{S})-2-amino-7-azabicyclo[2.2.1]heptane-7-carbonyl]-5-methoxy-3-methyl-imidazo[1,2-a]pyridin-2-yl]-11-methyl-7-oxa-1,10,19-triazatetracyclo[10.5.2.0^{3,5}.0^{15,18}] nonadeca-12(19),13,15(18),16-tetraen-9-one]",30 nM
7,"COc1cc(C(=O)N2[C@H]3CC[C@@H]2[C@H](N)C3)cc2nc(-c3cc4ccc5nc4n3CCCCCCCC(=O)N3C[C@@H]4C[C@@H]4[C@H]53)n(C)c12 [Example 135, (2~{R),3~{S},5~{R})-17-[5-[(1~{R},2~{R},4~{S})-2-amino-7-azabicyclo[2.2.1]heptane-7-carbonyl]-7-methoxy-1-methyl-benzimidazol-2-yl]-7,16,22-triazapentacyclo [14.5.2.0^{2,7}.0^{3,5}.0^{19,23}] tricosa-1(22),17,19(23),20-tetraen-8-one]",37 nM
8,"COc1cc(C(=O)N2CC[C@@H](OC)[C@@H](N)C2)cc2nc(-c3cc4ccc5nc4n3CCCCCc3cccnc3C(=O)N[C@@H]5C)n(C)c12 [Example 503, (2~{R})-17-[5-[(3~ {S},4~{R})-3-amino-4-methoxy-piperidine-1-carbonyl]-7-methoxy-1-methyl-benzimidazol-2-yl]-2-methyl-3,6,16,22-tetrazatetracyclo [14.5.2.0^{5,10).0^{19,23}] tricosa-1(22),5(10),6,8,17,19(23),20-heptaen-4-one]",110 nM
9,"COc1cc(C(=O)N2CCC[C@@H](N)C2)cc2nc(-c3cc4ccc5nc4n3C[C@H]3C[C@H]3COCC3(CC3)C(=O)N[C@@H]5C)n(C)c12 [Example 311, (3~{S],5~{R},12~{R})-18-[5-[(3~{R})-3-aminopiperidine-1-carbonyl]-7-methoxy-1-methyl-benzimidazol-2-yl]-12-methyl-spiro[7-oxa-1,11,20-triazatetracyclo[11.5.2.0^{3,5}.0^{16,19}]icosa-13(20),14,16(19),17-tetraene-9,1′-cyclopropane]-10-one]",175 nM
10,"COc1cc(C(=O)N[C@H]2CNCC[C@@H]2F)cc2nc(-c3cc4ccc5nc4n3Cc3ccccc3CCCCC(=O)N[C@@H]5C)n(C)c12 [Example 590, ~{N}-[(3~{S},4~{S})-4-fluoro-3-piperidyl]-7-methoxy-1-methyl-2-[(15~{R})-15-methyl-13-oxo-1,14,23-triazatetracyclo[14.5.2.0^ {3,8}.0^{19,22}]tricosa-3(8),4,6,16,18,20,22-heptaen-21-yl] benzimidazole-5-carboxamide]",683 nM

# The remaining lines, values ahead:
row,IC50,Compound
1,27 nM,"C[C@H]1NC(=O)c2c(F)cncc2CCCCCn2c(-c3nc4cc(C(=O)N5C[C@H](N)[C@@H]6CC[C@H]5C6)cc(F)c4n3C3CC3)cc3ccc1nc32 [Example 440, (2~{R})-17-[5-[(1~{S},4~{R},5~{R})-4-amino-2-azabicyclo[3.2.1]octane-2-carbonyl]-1-cyclopropyl-7-fluoro-benzimidazol-2-yl]-6-fluoro-2-methyl-3,8,16,22-tetrazatetracyclo[14.5.2.0^{5,10}.0^{19,23}] tricosa-1(22),5(10),6,8,17,19(23),20-heptaen-4-one]"
2,35 nM,"C[C@H]1NC(=O)[C@@H]2C[C@H]2CCCC(F)(F)Cn2c(-c3nc4cc(C(=O)N5C[C@H](N)[C@@H]6CC[C@H]5C6)cc(F)c4n3CC(F)F)cc3ccc1nc32 [Example 922, (2~{R},5~{R},7~{R})-14-[5-[(1~{S},4~{R},5~{R})-4-amino-2-azabicyclo[3.2.1]octane-2-carbonyl]-1-(2,2-difluoroethyl)-7-fluoro-benzimidazol-2-yl]-11,11-difluoro-2-methyl-3,13,19-triazatetracyclo [11.5.2.0^{5,7}.0^{16,20}] icosa-1(19),14,16(20),17-tetraen-4-one]"
3,26 nM,"COc1cc(C(=O)N2C[C@H](N)[C@@H]3CC[C@H]2C3)cc2nc(-c3cc4ccc5nc4n3CCCCCc3cc(Cl)ncc3C(=O)N[C@@H]5C)n(C)c12 [Example 665, (2~{R})-17-[5-[(1~{S),4~{R}, 5~{R})-4-amino-2-azabicyclo[3.2.1]octane-2-carbonyl]-7-methoxy-1-methyl-benzimidazol-2-yl]-8-chloro-2-methyl-3,7,16,22-tetrazatetracyclo[14.5.2.0^ {5,10).0^{19,23}]tricosa-1(22),5(10),6,8,17,19(23),20-heptaen-4-one]"
4,57 nM,"C[C@H]1NC(=O)c2ccc(Cl)nc2CCCCCn2c(-c3nc4cc(C(=O)N5C[C@H](N)[C@@H]6CC[C@H]5C6)c(F)c(F)c4n3C3CC3)cc3ccc1nc32 [Example 456, (2~{R})-17-[5-[(1~{S},4~{R},5~{R})-4-amino-2-azabicyclo[3.2.1]octane-2-carbonyl]-1-cyclopropyl-6,7-difluoro-benzimidazol-2-yl]-8-chloro-2-methyl-3,9,16,22-tetrazatetracyclo[14.5.2.0^{5,10}.0^{19,23}] tricosa-1(22),5(10),6,8,17,19(23),20-heptaen-4-one]"
5,48 nM,"COc1cc(C(=O)N2C[C@H](N)[C@@H]3CC[C@H]2C3)cc2nc(-c3cc4ccc5nc4n3CC(F)(F)CCCCC(C)(C)C(=O)N[C@@H]5C)n(C)c12 [Example 943, (11~{R})-17-[5-[(1~{S},4~{R}, 5~{R})-4-amino-2-azabicyclo [3.2.1]octane-2-carbonyl]-7-methoxy-1-methyl-benzimidazol-2-yl]-3,3-difluoro-8,8,11-trimethyl-1,10,19-triazatricyclo[10.5.2.0^{15,18}] nonadeca-12(19), 13,15(18),16-tetraen-9-one]"
6,553 nM,"COc1cc(C(=O)N2[C@H]3CC[C@@H]2[C@H](N)C3)cc2nc(-c3cc4ccc5nc4n3CCCCc3cccc(n3)C(=O)N[C@@H]5C)n(C)c12 [Example 37, (2~{R})-15-[5-[(1~{R},2~{R},4~{S})-2-amino-7-azabicyclo[2.2.1]heptane-7-carbonyl]-7-methoxy-1-methyl-benzimidazol-2-yl]-2-methyl-3,14,20,22-tetrazatetracyclo[12.5.2.1^{5,9}.0^{17,21}] docosa-1(20),5,7,9(22),15,17(21),18-heptaen-4-one]"
7,40 nM,"C[C@H]1NC(=O)c2ccc(Cl)nc2CCCCCn2c(-c3nc4cc(C(=O)N5C[C@H](N)[C@@H]6CC[C@H]5C6)cc(OC(F)(F)F)c4n3C)cc3ccc1nc32 [Example 714, (2~{R})-17-[5-[(1~{S},4~{R}, 5~{R})-4-amino-2-azabicyclo [3.2.1]octane-2-carbonyl]-1-methyl-7-(trifluoromethoxy)benzimidazol-2-yl]-8-chloro-2-methyl-3,9,16,22-tetrazatetracyclo[14.5.2.0^ {5,10).0^{19,23}]tricosa-1(22), 5(10),6,8,17,19(23),20-heptaen-4-one]"

# Reference: US11976083B2, “Inhibitors of peptidylarginine deiminases” (Gilead Sciences, Inc., priority 2020, dated 2024)
